Source: PMC6009888, “Design, synthesis, and pharmacological evaluation of 2-amino-5-nitrothiazole derived semicarbazones as dual inhibitors of monoamine oxidase and cholinesterase: effect of the size of aryl binding site” (Journal of Enzyme Inhibition and Medicinal Chemistry, 2017)
“Also recorded” adds a separate entry of the source. Like-named read-outs stand apart in the source and are kept apart here.

Tests used:
[1] = In vitro DPPH radical scavenging assay; conditions: test sample 100 µg/ml, 100 µM methanolic DPPH, 30 min, 517 nm
Experimental: Antioxidant activity of the synthesised compounds (10 mg/ml) was evaluated using the radical scavenging capability against the stable free radical, 2,2′-diphenyl-1-picryl hydrazyl (DPPH·). The DPPH· scavenging capability was determined using UV based spectrophotometric assay. About 200 µl of the test sample solution (100 µg/ml) was added to 4 ml of 100 µM methanolic DPPH. […] Ascorbic acid (100 µg/ml) was used as reference. The percentage inhibition of DPPH activity was estimated using the formula: Percent (%) inhibition of DPPH activity = Acontrol-Asample/Acontrol×100 where Acontrol is the absorbance of DPPH· in methanol without an antioxidant and Asample is the absorbance of DPPH· in the presence of an antioxidant.

mice = assay: Neurotoxicity screening (rotarod test); type: in vivo; conditions: for Neurotoxicity (animals that exhibit toxicity / animals tested): 30 mg/kg i.p.; for Neurotoxicity (verdict in words): 30 mg/kg, relative to phenytoin
Experimental: The neurotoxicity screening was undertaken according to the method followed by the National Institute of Health, using their reported procedures[55]^,[56]. Male albino mice (CF-1 strain or Swiss, 18–25 g) were used as experimental animals. The animals were housed in metabolic cages, and allowed free access to food and water. The test compounds were suspended in 0.5% methylcellulose/water mixture or in polyethylene glycol (PEG 200).
Minimal motor impairment was measured in mice by the rotarod test. The mice were trained to stay on an accelerating rotarod that rotates at six revolutions per minute. The rod diameter was 3.2 cm. Trained animals were given i.p. injection of the selected inhibitors at a dose of 30 mg/kg. Neurotoxicity was indicated by the inability of the animal to maintain equilibrium on the rod for at least 1 min in each of the three trials.

equine serum BuChE = target: T1, equine serum BuChE (Equus caballus, UniProt P81908); assay: In vitro BuChE inhibition assay (Ellman's method, equine serum BuChE); type: biochemical
T1 construct: equine serum BuChE was used as enzyme; purchased Sigma-Aldrich; host or cells: equine serum
T1 sequence (P81908 whole entry): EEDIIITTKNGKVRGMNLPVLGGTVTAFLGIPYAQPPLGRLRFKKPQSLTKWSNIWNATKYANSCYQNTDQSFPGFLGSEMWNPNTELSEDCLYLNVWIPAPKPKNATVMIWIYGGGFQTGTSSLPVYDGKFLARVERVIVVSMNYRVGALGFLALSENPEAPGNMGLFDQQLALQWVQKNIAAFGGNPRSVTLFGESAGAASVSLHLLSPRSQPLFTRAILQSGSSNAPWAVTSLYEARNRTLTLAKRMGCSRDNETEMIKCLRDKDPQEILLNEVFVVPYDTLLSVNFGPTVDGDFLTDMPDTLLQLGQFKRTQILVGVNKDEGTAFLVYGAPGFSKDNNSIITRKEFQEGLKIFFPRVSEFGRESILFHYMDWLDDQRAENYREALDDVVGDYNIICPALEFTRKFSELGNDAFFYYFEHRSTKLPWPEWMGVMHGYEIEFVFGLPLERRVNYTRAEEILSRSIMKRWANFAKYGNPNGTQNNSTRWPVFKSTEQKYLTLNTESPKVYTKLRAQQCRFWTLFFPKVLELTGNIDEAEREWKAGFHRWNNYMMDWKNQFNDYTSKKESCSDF
Experimental: About 30 µl of enzyme sample (AChE) was added to 60 µl of 20 mM sodium phosphate buffer (pH 7.4) and were incubated in the presence of 30 µl of 10 mM DTNB solution with different concentrations of the test compounds. The enzyme reaction was initiated by the addition of 30 µl of 0.8 mM ACTI. The mixtures were incubated for 15 min at 25 °C. […] Control experiments were carried out without inhibitor, and blanks were run without AChE enzyme. All the assays were performed in triplicate. IC50 values were determined using the GraphPad Prism 5.0 (San Diego, CA) and the results were expressed as mean ± SEM.
The BuChE activity was assayed as per the procedure followed for AChE activity except that equine serum BuChE was used as enzyme and butyrylthiocholine iodide (BuTI) was used as substrate.
(§1) 0, 15, 30 and 60 min at 25 °C in sodium phosphate buffer (20 mM, pH 7.4) and DTNB solution (10 mM). […] The reaction was further incubated at 25 °C for a further 15 min and the residual enzyme activities were measured and the bar graphs were constructed. All measurements were carried out in triplicate and are expressed as mean ± SEM.

MAO-B = target: T2, MAO-B (Rattus norvegicus, UniProt P19643); assay: biochemical; conditions: for SI (selectivity index for MAO-B): ratio of experimental IC50(MAO-A)/IC50(MAO-B)
T2 construct: employing crude rat brain mitochondrial suspension; from tissue; host or cells: brain mitochondria of adult Wistar rats
T2 sequence (P19643 1-520): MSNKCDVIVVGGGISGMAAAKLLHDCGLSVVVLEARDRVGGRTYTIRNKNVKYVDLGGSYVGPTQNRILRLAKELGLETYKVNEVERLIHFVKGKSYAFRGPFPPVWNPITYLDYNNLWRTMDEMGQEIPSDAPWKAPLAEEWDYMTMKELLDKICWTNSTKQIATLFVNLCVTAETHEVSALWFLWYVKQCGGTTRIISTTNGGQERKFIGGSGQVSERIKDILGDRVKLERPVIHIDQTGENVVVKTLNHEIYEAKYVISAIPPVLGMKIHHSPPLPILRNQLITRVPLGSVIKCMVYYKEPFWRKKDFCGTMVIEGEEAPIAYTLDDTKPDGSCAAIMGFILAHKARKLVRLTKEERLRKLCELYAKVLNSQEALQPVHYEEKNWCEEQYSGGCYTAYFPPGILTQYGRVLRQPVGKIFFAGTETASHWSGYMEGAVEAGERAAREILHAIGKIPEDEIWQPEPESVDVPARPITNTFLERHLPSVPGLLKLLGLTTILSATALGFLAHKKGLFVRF
Experimental: Rat brain mitochondria were used as a source of MAO isoforms. All operations were carried out at 4 °C[50]. Male and female adult Wistar rats weighing 200–220 g were decapitated. All brains were rapidly removed and homogenised with a Potter–Elvehjem homogeniser in cold 0.32 M sucrose and 50 mM Tris-HCl, pH 8.2 (10:1, v/w). The homogenate was centrifuged twice at 1000 g for 5 min at 4 °C. The resulting supernatant was centrifuged at 20,000 g for 20 min. The mitochondrial pellet obtained was suspended in 100 mM sodium phosphate buffer, pH 7.4 (4:1, v/w), fractionated in plastic vials to 500 µl samples and stored at −80 °C. Before use, mitochondria were diluted with 100 mM sodium phosphate buffer to give a working solution of 0.80 mg of protein per millilitre.
The experiments were carried out under all the suitable laboratory conditions. […] An aliquot was made to contain mixture of 55 µl mitochondrial suspension (0.80 mg of protein/ml), 90 µl 50 mM Tris-HCl buffer, pH 8.2 and 30 µl solubilising solution (control or inhibitor solution at five different concentrations). The reaction was initiated by adding 25 µl of serotonin (4 mM, substrate for MAO-A) and 25 µl benzylamine (0.1 M, substrate for MAO-B) for the determination of MAO-A and MAO-B activity, respectively. The mixture was incubated at 37 °C for 30 min and the reaction was stopped by the addition of 50 µl of 1 N HCl. The absorbance associated with the production of 5-hydroxyindolacetic acid was measured at 280 nm for the estimation of MAO-A while for MAO-B estimation, the absorbance was measured at 250 nm due to the formation of benzaldehyde. All the assays were performed in triplicate. Control experiments were carried out without inhibitor and blanks were run without mitochondrial suspension.
Data are expressed as mean ± standard error mean (SEM) of experiments performed in triplicate.
as §1, with “37” for “25”, “Tris-HCl” for “sodium phosphate”, “(50” for “(20”, “8.2).” for “7.4) and DTNB solution (10 mM).”, “reactions were” for “reaction was”

[2] = equine serum BuChE, BuTI substrate, mean ± SEM, read-out: BuChE In vitro IC50 (µM) ± SEM

Structure (SMILES): O=C(NN=C1C(=O)Nc2ccc(Br)cc21)Nc1ncc([N+](=O)[O-])s1 [Compound 21, 1-(5-Bromo-2-oxoindolin-3-ylidene)-4–(5-nitrothiazol-2-yl)semicarbazide]
- % inhibition of DPPH activity [1]: 65.65%
- Neurotoxicity (animals that exhibit toxicity / animals tested) (mice; 0.5 h): 1/4
- Neurotoxicity (animals that exhibit toxicity / animals tested) (mice; 1 h): 0/4
- Neurotoxicity (animals that exhibit toxicity / animals tested) (mice; 2 h): 0/4
- Neurotoxicity (animals that exhibit toxicity / animals tested) (mice; 4 h): 0/4
- Neurotoxicity (verdict in words) (mice): mildly neurotoxic; also recorded: slightly neurotoxic
- IC50 (equine serum BuChE; [2]): 5.37 ± 0.278 µM
- BuChE: fold reduction in activity compared to compound 4 (equine serum BuChE; ratio of IC50 values): ~10.75 fold
- BuChE: fold reduction in activity compared to compound 5 (equine serum BuChE; ratio of IC50 values): ~9.7 fold
- IC50 (MAO-B): 734 ± 6 nM
- SI (selectivity index for MAO-B) (MAO-B): 77.94

Structure (SMILES): CC(=NNC(=O)Nc1ncc([N+](=O)[O-])s1)c1ccc(Cl)cc1 [Compound 5, 1-(1-(4-Chlorophenyl)ethylidene)-4-(5-nitrothiazol-2-yl)semicarbazide]
- % inhibition of DPPH activity [1]: 51.83%
- Neurotoxicity (animals that exhibit toxicity / animals tested) (mice; 0.5 h): 0/4
- Neurotoxicity (animals that exhibit toxicity / animals tested) (mice; 1 h): 0/4
- Neurotoxicity (animals that exhibit toxicity / animals tested) (mice; 2 h): 0/4
- Neurotoxicity (animals that exhibit toxicity / animals tested) (mice; 4 h): 0/4
- IC50 (equine serum BuChE; [2]): 0.553 ± 0.038 µM
- IC50 (MAO-B): 601 ± 15 nM
- SI (selectivity index for MAO-B) (MAO-B): 7921.79

Structure (SMILES): O=C(NN=C(c1ccc(Cl)cc1)c1ccc(Cl)cc1)Nc1ncc([N+](=O)[O-])s1 [Compound 19, 1-(Bis(4-chlorophenyl)methylene)-4-(5-nitrothiazol-2-yl)semicarbazide]
- % inhibition of DPPH activity [1]: 24.03%
- Neurotoxicity (animals that exhibit toxicity / animals tested) (mice; 0.5 h): 0/4
- Neurotoxicity (animals that exhibit toxicity / animals tested) (mice; 1 h): 0/4
- Neurotoxicity (animals that exhibit toxicity / animals tested) (mice; 2 h): 0/4
- Neurotoxicity (animals that exhibit toxicity / animals tested) (mice; 4 h): 0/4
- IC50 (equine serum BuChE): 5.72 ± 0.874 µM
- BuChE: fold less active relative to compound 17 (equine serum BuChE; diaryl analogues): ~238 fold
- IC50 (MAO-B): 1480 ± 63 nM
- MAO-B: fold increase in activity relative to compound 17 (MAO-B; diaryl analogues): ~19.32 fold
- SI (selectivity index for MAO-B) (MAO-B): 34360.43

Structure (SMILES): CC(=NNC(=O)Nc1ncc([N+](=O)[O-])s1)c1ccc(Br)cc1 [Compound 4, 1-(1-(4-Bromophenyl)ethylidene)-4-(5-nitrothiazol-2-yl)semicarbazide]
- % inhibition of DPPH activity [1]: 58.68%
- Neurotoxicity (animals that exhibit toxicity / animals tested) (mice; 0.5 h): 0/4
- Neurotoxicity (animals that exhibit toxicity / animals tested) (mice; 1 h): 0/4
- Neurotoxicity (animals that exhibit toxicity / animals tested) (mice; 2 h): 0/4
- Neurotoxicity (animals that exhibit toxicity / animals tested) (mice; 4 h): 0/4
- Neurotoxicity (verdict in words) (mice): non-neurotoxic
- IC50 (equine serum BuChE; [2]): 0.499 ± 0.003 µM
- IC50 (MAO-B): 212 ± 4 nM
- Ki (MAO-B): 11700 ± 580 nM
- Mode of MAO-B inhibition (MAO-B; Lineweaver–Burk plots, benzylamine): competitive; also recorded: competitively
- SI (selectivity index for MAO-B) (MAO-B): 331.08
- Reversibility of MAO-B inhibition (MAO-B; time-dependent inhibition, pre-incubation 0, 15, 30, 60 min): reversible
